Experimental data reported in patent publication US20070093499A1, “Use of dasatinib for the treatment of bone metastasis” (Bristol-Myers Squibb Company, priority 2005, published 2007).
Values belong to the compound of their own block, whether it stands above or below them. Ends that are not written are not given here.

Tests used:
TPTX rats [1] = experiment: Inhibition of PTH-induced hypercalcemia (serum calcium) in TPTX rats, oral BMS-354825; type: in vivo, rat
Experimental: Male Sprague-Dawley TPTX rats with basal serum calcium levels around 7-8 mg/dl were randomly assigned to the experimental groups. Alzet® mini-pumps containing a resorption stimulus (PTH: infusion rate of 0.3 μg/hr) were implanted subcutaneously. In brief, rats were anesthetized with isoflurane (5% of oxygen), the skin of the flank area was disinfected with a topical disinfectant. Following a small incision, a subcutaneous pouch was made with a sterile pair of blunt scissors, a mini-pump was inserted and the incision was closed with a wound clip. Upon drug administration, 500 μl of blood was sampled at the indicated time points by retro-orbital bleeding, the serum was collected and frozen at −80° C. Levels of serum calcium and drug were analyzed accordingly.
The serum levels of calcium of TPTX rats were quantitated by a photometric assay with the Roche Hitachi 917 (H9 17) automated chemistry analyzer (Indianapolis, Ind.). In this method, calcium reacts with o-cresolphthalein complexone in the presence of 8-hydroxyquinoline to form a purple chromophore. The color intensity of the purple complex is directly proportional to the calcium concentration and is measured photometrically on the analyzer. This method is capable of quantifying 0.2-18.2 mg/dL of serum calcium. For samples >18.2 mg/dL the samples must be diluted in saline and the value multiplied by the appropriate factor.
Malignancy related hypercalcemia has been strongly linked with bone resorption mediated by stimulation of native osteoclast formation and activity. […] In this model, the thyroid and parathyroid are surgically removed to induce hypocalcemia, then subsequent infusion with PTH stimulates the osteoclast-mediated calcemic response. […]. […] […]. […] […].
“Zoledronic acid versus placebo in the treatment of skeletal metastases in patients with lung cancer and other solid tumors: a phase III, double-blind, randomized trial—the Zoledronic Acid Lung Cancer and Other Solid Tumors Study Group.” J Clin Oncol 21(16): 3150-7). […] […]. […] […]. Due to the fact that osmotic pump works less efficiently after day 4, we intended not to include the data of calcium levels thereafter. […].

in vivo = details: Sprague-Dawley, rat, po, 30 mg/kg
Experimental: The serum levels of drug were analyzed by high performance liquid chromatography/mass spectrometry (HPLC/MS). […] After centrifugation to remove precipitated proteins, 5 μl of the supernatant was analyzed by HPLC/MS. The HPLC column was a Phenomenex Prodigy C18-ODS3 column (2 mm×50 mm, […]) maintained at 60° C. with a flow rate of 0.5 ml/min. […] The HPLC was interfaced to a Finnigan LCQ Advantage ion-trap mass spectrometer operated in the positive ion electrospray and full MS/MS mode. […] The limit of quantitation (LOQ) for the purposes of this assay was 0.004 μM. Quality control (QC) samples at two levels in the range of the standard curve were used to accept individual analytical sets. [drawing 3]
PK data analysis was performed by noncompartmental method using Kinetica (v4.0.2, InnaPhase Corporation, Philadelphia, Pa.). The maximum plasma concentration (Cmax) and the time reaching Cmax (Tmax) were determined by visually inspecting the profiles of plasma level of drug vs. time. […] The area under the plasma drug concentration curve (AUC) was estimated by the trapezoidal rule.

[2] = tested on: TRAP positive osteoclasts in mouse bone marrow cell culture; experiment: Osteoclast formation (TRAP staining) in mouse bone marrow cell culture; type: cell-based
Experimental: Bone marrow was harvested by flushing the femur and tibia bones of CDF-1 mice with PBS followed by washing twice with PBS and resuspending in DMEM with 10% FBS (1-2×10^6 cells/m, 10 ml). Cells were then seeded in 24-well plates (2×10^6 cells/well/ml) and were cultured for 6-9 days in DMEM media supplemented with the cytokines: 10 ng/ml recombinant mouse M-CSF-1 and 100 ng/ml recombinant mouse RANK ligand to induce osteoclast development. Culture medium was replaced every two days till day 5 and there was no medium replacing between day 6 and day 9. […] On days 5, 7, and 9, cell viability and number of TRAP positive cells were determined using the Acid Phosphatase Leukocyte staining kit. The bone marrow cells were washed with PBS and stained according to the protocol recommended by the vendor. TRAP positive cells and osteoclasts were counted using an inverted microscope.
Differentiation to osteoclasts then occurs in the presence of osteoclast differentiation factor or RANK ligand (Buckley and Fraser Buckley, K. A. and W. D. Fraser (2002). “Receptor activator for nuclear factor kappaB ligand and osteoprotegerin: regulators of bone physiology and immune responses/potential therapeutic agents and biochemical markers.” Ann Clin Biochem 39(Pt 6): 551-6.). To establish the cell culture model of osteoclasts, bone marrow cells were freshly harvested from the tibia and femur bones of mice and were seeded in 24-wells plates containing DMEM medium supplemented with 20 ng/ml M-CSF and 100 ng/ml RANK ligand, which are the conditions commonly used in murine bone marrow culturing conditions (Murray, L. J., T. J. Abrams, et al. (2003). “SU11248 inhibits tumor growth and CSF-1R-dependent osteolysis in an experimental breast cancer bone metastasis model.” Clin Exp Metastasis 20(8): 757-66.). The formation of osteoclasts was monitored by TRAP staining for 9 days. […] Starting from day 5, TRAP positive staining cells were observed, and the multi-nucleated TRAP positive staining osteoclasts (with ≧3 nuclei) were clearly detected on day 7 and became most abundant by day 9.
[…]. […] […]. […] […].

[3] = tested on: PTH-stimulated bone resorption in fetal rat long bones; experiment: In vitro bone resorption assay (45Ca release from fetal rat long bones); type: cell-based
Experimental: Fetal rat long bones were prepared and cultured as described previously. (Feyen J H M, Cardinaux F, Gamse R, Bruns C, Azria M, and Trechsel U. N-terminal truncation of salmon calcitonin leads to calcitonin antagonist. Structure activity relationship of N-terminally truncated salmon calcitonin fragments in vitro and in vivo. Biochemistry and Biophysiology Research Communication 1992; 187:8-13.) Briefly, pregnant Sprague Dawley rats were injected subcutaneously with 200 μCi ^45Ca on day 18 of gestation. The following day, radii and ulnae were dissected free from muscle and connective tissue. The cartilaginous ends of the bones were removed and the calcified diaphyses were cultured in 0.5 mL BGJ medium supplemented with 1 mg/mL bovine serum albumin (BSA, fraction V) in 24-well tissue culture plates in a CO2 incubator at 37° C. overnight to reduce free exchangeable calcium. Next, medium was replaced and the bone explants were maintained in culture for 5 days in the presence or absence of the compounds to be tested. On day 2, a 100 μL aliquot was taken from the medium and the medium was replaced with fresh medium with or without treatments. […] The amount of radioactive calcium was determined using a Beckman liquid scintillation counter. Bone resorption was expressed as the percentage ^45Ca released by day 5 of total amount of ^45Ca originally incorporated in bone explants.

TPTX rats [4] = experiment: Serum calcium in thyro-parathyroidectomized rats, IP dosing; type: in vivo, rat
Experimental: Thyro-parathyroidectomy (TPTX) surgery was performed on male Sprague-Dawley rats (200 gram body weight) as described previously.4 Thyro-parathyroidectomized (TPTX) rats with serum calcium values of 5-8 mg/dl were used for the study (normal reference range is 10-12 mg/dl). On the day of the study (48 hours post-surgery), blood was collected from the tail vein under isoflurane anesthesia, and Alzet mini-pumps (delivering 1 μl/hr) containing 0.3 μg/ml of parathyroid hormone (PTH) were implanted subcutaneously. […] Blood was collected at 3, 6 & 24 hours after dosing and analyzed for serum calcium levels.

bone resorption = details: Murray et al. 2003; cited from earlier work
osteoclasts = details: cell culture; Murray et al. 2003; cited from earlier work
[5] = tested on: fetal rat long bone culture; details: Missbach et al. 1999; cited from earlier work
ovariectomized rats = details: Missbach et al. 1999; cited from earlier work

Compound: O=P(O)(O)C(O)(Cn1ccnc1)P(=O)(O)O [zometa, reference compound]
onset of inhibition of serum calcium levels (TPTX rats [1]; 0.4 mg/kg/dose sc (QD×5), PTH infused 24 hr prior to treatment): did not produce any appreciable inhibition until 24 hr

AUC0-24 hr (in vivo): 0.91 µM·h
Cmax (in vivo): 60 nM
AUC(0-t) (in vivo; AUC0-24 hr): 1.16 µM·h
IC50 ([2]; Mus musculus, Osteoclast, 120 h, read-out: IC50, drug concentration required to inhibit 50% of osteoclast formation): 4.4 nM
IC50 ([3]; Rattus norvegicus, PTH 10^-8 M, read-out: apparent IC50, PTH-stimulated release of 45Ca (bone resorption)): 2 nM
Compound: Cc1nc(Nc2ncc(C(=O)Nc3c(C)cccc3Cl)s2)cc(N2CCN(CCO)CC2)n1 [BMS-354825, N-(2-chloro-6-methylphenyl)-2-((6-(4-(2-hydroxyethyl)-1-piperazinyl)-2-methyl-4-pyrimidinyl)amino)-1,3-thiazole-5-carboxamide]
inhibition of hypercalcemia compared with zometa 0.4 mg/kg/dose sc (TPTX rats [1]; 30 mg/kg/dose po, once daily): more effective than zometa
inhibition of hypercalcemia compared with zometa 0.4 mg/kg/dose sc (TPTX rats [1]; 15 and 5 mg/kg/dose po, multiple treatment schedule): comparable inhibitory effect
time to inhibition of serum calcium levels (TPTX rats [1]; 30, 15, 5 mg/kg/dose po (QD×5), PTH infused 24 hr prior to treatment): ≤ 3 h
inhibition of serum calcium levels (TPTX rats [1]; 30, 15 and 5 mpk po (QD×1), upon initiation of PTH infusion): dose dependent inhibition
inhibition of serum levels of calcium (TPTX rats [1]; 30 mpk (QD×1) and 15 mpk (2QD×1), orally): rapidly inhibited
serum calcium levels vs control rats (TPTX rats [1]; day 3 post drug administration, 30 mpk QD×1 / 15 mpk 2QD×1 po): significantly below those of the control rats
time of maximum inhibition of serum calcium levels (TPTX rats [1]; post drug administration, 15 and 30 mg/kg/dose po): 4 h
formation of osteoclasts ([2]; DMEM with M-CSF/RANK ligand, dosed on day 5 post seeding): inhibited dose dependently
number of osteoclasts ([2]; both culturing conditions: MDA-MB-231 condition media and DMEM with CSF/RANK ligand): significantly reduced
number of the TRAP positive staining osteoclasts ([2]; various concentrations dosed on day 5, cultured up to 9 days): significantly reduced
PTH-stimulated bone resorption ([3]; at 5 nM): completely blocks
Serum Calcium (TPTX rats [4]; 3 mg/kg ip, 0 Hour (before dosing)): 6.74 ± 0.29 mg/dL
Serum Calcium (TPTX rats [4]; 3 mg/kg ip, 3 Hour): 5.68 ± 0.26 mg/dL
Serum Calcium (TPTX rats [4]; 3 mg/kg ip, 6 Hour): 7.94 ± 1.19 mg/dL
Serum Calcium (TPTX rats [4]; 3 mg/kg ip, 24 Hour): 11.88 ± 0.61 mg/dL
significance of serum calcium effect vs vehicle (TPTX rats [4]; 3 mg/kg ip, 3 hour time point): not significant
Serum Calcium (TPTX rats [4]; 10 mg/kg ip, 0 Hour (before dosing)): 6.68 ± 0.25 mg/dL
Serum Calcium (TPTX rats [4]; 10 mg/kg ip, 3 Hour): 5.80 ± 0.19 mg/dL
Serum Calcium (TPTX rats [4]; 10 mg/kg ip, 6 Hour): 5.36 ± 0.12 mg/dL
Serum Calcium (TPTX rats [4]; 10 mg/kg ip, 24 Hour): 7.70 ± 0.78 mg/dL
serum calcium levels vs vehicle and calcitonin (TPTX rats [4]; 10 mg/kg ip, after 24 hours): significantly lower than both vehicle and calcitonin

Compound: Salmon Calcitonin [reference compound]
Serum Calcium (TPTX rats [4]; 5 IU ip, 0 Hour (before dosing)): 6.68 ± 0.21 mg/dL
Serum Calcium (TPTX rats [4]; 5 IU ip, 3 Hour): 5.06 ± 0.13 mg/dL
Serum Calcium (TPTX rats [4]; 5 IU ip, 6 Hour): 5.14 ± 0.15 mg/dL
Serum Calcium (TPTX rats [4]; 5 IU ip, 24 Hour): 10.62 ± 0.64 mg/dL

Compound: calcitonin: a drug currently being used to manage hypercalcemia clinically, used as a reference compound (CGNLSTCMLGTYTQDFNKFHTFPQTAIGVGAP; ends and bridges not checked; cysteine pairing not given here; UniProt P01258 85-116, looked up) [reference compound]
inhibition of serum calcium levels (TPTX rats [1]; 5 IU/dose sc): rapid inhibition of serum calcium levels, but the inhibition was reversed rapidly
serum calcium levels vs control rats (TPTX rats [1]; day 3, 5 IU/dose sc): no significant difference

Compound: CCN(CC)CCNC(=O)c1c(C)[nH]c(/C=C2\C(=O)Nc3ccc(F)cc32)c1C [Su-11248]
bone resorption in vivo (bone resorption): inhibitory potency
formation and function of osteoclasts (osteoclasts): inhibitory potency

Compound: COc1cccc(-c2cn(-c3ccc(CCN4CCC(O)CC4)cc3)c3ncnc(N)c23)c1 [CGP77675]
parathyroid hormone (PTH)-induced bone resorption [5]: inhibitory potency
bone resorption (ovariectomized rats): inhibitory potency
